Each structure is given as a SMILES string.

Results on five compounds are retold here after patent US9718826B2, “Imidazopyrazinone derivatives” (Merck Patent GmbH, priority 2013, dated 2017).

T3 sequence (Q9H2K2 873-1166): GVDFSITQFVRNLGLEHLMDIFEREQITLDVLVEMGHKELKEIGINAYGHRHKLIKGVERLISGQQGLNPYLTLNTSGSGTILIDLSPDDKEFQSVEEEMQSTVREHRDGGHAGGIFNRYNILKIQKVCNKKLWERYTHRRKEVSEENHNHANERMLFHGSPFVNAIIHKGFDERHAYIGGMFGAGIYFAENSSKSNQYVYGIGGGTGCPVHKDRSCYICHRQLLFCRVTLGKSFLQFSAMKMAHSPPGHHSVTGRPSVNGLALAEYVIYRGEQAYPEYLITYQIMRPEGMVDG

The target in the first test is T1, GST-tagged Tankyrase-1 (1023-1327 aa) (Homo sapiens, UniProt O95271).
T1 construct: GST-tagged Tankyrase-1 (1023-1327 aa)
T1 sequence (O95271 1023-1327): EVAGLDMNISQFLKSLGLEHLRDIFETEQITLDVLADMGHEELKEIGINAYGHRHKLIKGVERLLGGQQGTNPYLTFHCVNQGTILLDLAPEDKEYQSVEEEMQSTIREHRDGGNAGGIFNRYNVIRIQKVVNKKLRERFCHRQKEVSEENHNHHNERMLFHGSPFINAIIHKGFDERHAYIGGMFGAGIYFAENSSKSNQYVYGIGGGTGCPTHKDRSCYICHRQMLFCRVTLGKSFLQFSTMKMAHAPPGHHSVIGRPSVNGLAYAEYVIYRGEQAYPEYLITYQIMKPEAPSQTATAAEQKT
In words: Tankyrase 1 autoparsylation assay (HTRF). Format: biochemical. Conditions: read-out: IC50 TNKS1 enzyme assay. On the procedure:
(§1) Biochemical activity testing of Tankyrase 1 and 2: Autoparsylation assay
(§2) The autoparsylation assay is run in two steps: the enzymatic reaction in which GST-tagged Tankyrase-1, resp Tankyrase-2 transferred biotinylated ADP-ribose to itself from biotinylated NAD as co-substrate and the detection reaction where a time resolved FRET between cryptate labelled anti-GST bound to the GST tag of the enzyme and Xlent® labelled-streptavidin bound the biotin-parsylation residue is analysed. The autoparsylation activity was detectable directly via the increase in HTRF signal.
(§3) The autoparsylation assay is performed as 384-well HTRF® (Cisbio, Codolet, France) assay format in Greiner low volume nb 384-well microtiter plates and is used for high throughput screen. 250 nM GST-tagged Tankyrase-1 (1023-1327 aa), respectively about 250 nM GST-tagged Tankyrase-2 (873-1166 aa) and 5 μM bio-NAD (Biolog, Life science Inst., Bremen, Germany) as co-substrate are incubated in a total volume of 5 μl (50 mM HEPES, 4 mM Mg-chloride, 0.05% Pluronic F-68, 1.4 mM DTT, 0.5% DMSO, pH 7.7) in the absence or presence of the test compound (10 dilution concentrations) for 90 min at 30° C. The reaction is stopped by the addition of 1 μl 50 mM EDTA solution. 2 μl of the detection solution (1.6 μM SA-Xlent® (Cisbio, Codolet, France), 7.4 nM Anti-GST-K® (Eu-labelled anti-GST, Cisbio, Codolet, France) in 50 mM HEPES, 800 mM KF, 0.1% BSA, 20 mM EDTA, 0.1% CHAPS, pH 7.0) are added. After 1 h incubation at room temperature the HTRF is measured with an Envision multimode reader (Perkin Elmer LAS Germany GmbH) at excitation wavelength 340 nm (laser mode) and emission wavelengths 615 nm and 665 nm. The ratio of the emission signals is determined. The full value used is the inhibitor-free reaction. The pharmacological zero value used is XAV-939 (Tocris) in a final concentration of 5 μM. The inhibitory values (IC50) are determined using either the program Symyx Assay Explorer® or Condosseo® from GeneData.
For orientation: Time-resolved FRET reads energy transfer from a long-lived donor to a nearby acceptor.
`Cn1cc(-c2ccc(-c3cn4cncc4c(=O)[nH]3)cc2)cn1` [Compound A4, 6-[4-(1-methyl-1H-pyrazol-4-yl)-phenyl]-7H-imidazo[1,5-a]pyrazin-8-one]: the IC50 was 300 to 3000 nM.

As for `O=c1[nH]c(-c2ccc(CO)cc2)cn2cncc12` [Compound A5, 6-(4-hydroxymethyl-phenyl)-7H-imidazo[1,5-a]pyrazin-8-one], the IC50 lay in the range of 300 to 3000 nM.

As for `CC(C)(O)c1ccc(-c2cn3cncc3c(=O)[nH]2)cc1` [Compound A6, 6-[4-(1-hydroxy-1-methyl-ethyl)-phenyl]-7H-imidazo[1,5-a]pyrazin-8-one], the IC50 lay in the range of 300 to 3000 nM.

For the compound `Cc1ncc2c(=O)[nH]c(-c3ccc(C(C)(C)C)cc3)cn12` [Compound A7, 6-(4-tert-butyl-phenyl)-3-methyl-7H-imidazo[1,5-a]pyrazin-8-one], the IC50 lay within 300 to 3000 nM.

The target in the next test is T2, GST-tagged Tnks-2 (873-1166 aa) (Homo sapiens, UniProt Q9H2K2).
T2 construct: GST-tagged Tnks-2 (873-1166 aa, prepared in-house); made in house
T2 sequence (Q9H2K2 873-1166): as the sequence (Q9H2K2 873-1166) above
The test can be described thus: TNKS2 activity ELISA (autoparsylation assay).
Conditions: not given
Format: biochemical. As to the method:
(§4) Description of the TNKS1 and TNKS2 ELISA Assay
(§5) Biochemical Activity Testing of TNKS 1 and 2: Activity ELISA (Autoparsylation Assay)
(§6) For analysis of autoparsylation activity of TNKS 1 and 2 an activity ELISA is performed: In the first step GST tagged TNKS is captured on a Glutathione coated plate. Then the activity assay with biotinylated NAD is performed in the absence/presence of the compounds. During the enzymatic reaction GST tagged TNKS transfers biotinylated ADP-ribose to itself from biotinylated NAD as co-substrate. For the detection streptavidin-HRP conjugate is added that binds to the biotinylated TNKS and is thereby captured to the plates. The amount of biotinylated resp. autoparsylated TNKS is detected with a luminescence substrate for HRP. The level of the luminescence signal correlates directly with the amount of autoparsylated TNKS and therefore with activity of TNKS.
(§7) The activity ELISA is performed in 384 well Glutathione coated microtiter plates (Express capture Glutathione coated plate, Biocat, Heidelberg, Germany). The plates are pre-equilibrated with PBS. Then the plates are incubated with 50 μl 20 ng/well GST-tagged Tnks-1 (1023-1327 aa, prepared in-house), respectively GST-tagged Tnks-2 (873-1166 aa, prepared in-house) in assay buffer (50 mM HEPES, 4 mM Mg-chloride, 0.05% Pluronic F-68, 2 mM DTT, pH 7.7) overnight at 4° C. The plates are washed 3 times with PBS-Tween-20. The wells are blocked by incubation at room temperature for 20 minutes with 50 μl blocking buffer (PBS, 0.05% Tween-20, 0.5% BSA). Afterwards the plates are washed 3 times with PBS-Tween-20. The enzymatic reaction is performed in 50 μl reaction solution (50 mM HEPES, 4 mM Mg-chloride, 0.05% Pluronic F-68, 1.4 mM DTT, 0.5% DMSO, pH 7.7) with 10 μM bio-NAD (Biolog, Life science Inst., Bremen, Germany) as co-substrate in the absence or presence of the test compound (10 dilution concentrations) for 1 hour at 30° C. The reaction is stopped by 3 times washing with PBS-Tween-20. For the detection 50 μl of 20 ng/μl Streptavidin, HRP conjugate (MoBiTec, Göttingen, Germany) in PBS/0.05% Tween-20/0.01% BSA are added and the plates are incubated for 30 minutes at room temperature. After three times washing with PBS-Tween-20 50 μl of SuperSignal ELISA Femto Maximum sensitivity substrate solution (ThermoFisherScientific (Pierce), Bonn, Germany) are added. Following a 1 minute incubation at room temperature luminescence signals are measured with an Envision multimode reader (Perkin Elmer LAS Germany GmbH) at 700 nm. The full value used is the inhibitor-free reaction. The pharmacological zero value used is XAV-939 (Tocris) in a final concentration of 5 μM. The inhibitory values (IC50) are determined using either the program Symyx Assay Explorer® or Condosseo® from GeneData.
Take `Cn1cc(-c2ccc(-c3cn4cncc4c(=O)[nH]3)cc2)cn1` [Compound A4, 6-[4-(1-methyl-1H-pyrazol-4-yl)-phenyl]-7H-imidazo[1,5-a]pyrazin-8-one]: the IC50 was below 300 nM.

The compound `O=c1[nH]c(-c2ccc(CO)cc2)cn2cncc12` [Compound A5, 6-(4-hydroxymethyl-phenyl)-7H-imidazo[1,5-a]pyrazin-8-one] yielded an IC50 below 300 nM.

On to `CC(C)(O)c1ccc(-c2cn3cncc3c(=O)[nH]2)cc1` [Compound A6, 6-[4-(1-hydroxy-1-methyl-ethyl)-phenyl]-7H-imidazo[1,5-a]pyrazin-8-one], for which the IC50 was below 300 nM.

`Cc1ncc2c(=O)[nH]c(-c3ccc(C(C)(C)C)cc3)cn12` [Compound A7, 6-(4-tert-butyl-phenyl)-3-methyl-7H-imidazo[1,5-a]pyrazin-8-one] gave an IC50 below 300 nM.

Another test has as its system Tankyrases. In words: Cellular inhibition of Tankyrase, Axin2 level in DLD1 cells (Luminex). The class given is cell-based. To be noted: Axin2 increase, 24 hours, read-out: EC50 [M] TNKS cellular assay. On the procedure: Measurement of Cellular Inhibition of Tankyrase
Since Tankyrases have been described to modulate cellular level of Axin2 (Huang et al., 2009; Nature) the increase of Axin2 level is used as read-out for determination of cellular inhibition of Tankyrases in a Luminex based assay.
Cells of the colon carcinoma cell line DLD1 are plated in 96 well plates with 1.5×10^4 cells per well. Next day, cells are treated with a serial dilution of test compound in seven steps as triplicates with a final DMSO concentration of 0.3%. After 24 hours, cells are lysed in lysis buffer (20 mM Tris/HCl pH 8.0, 150 mM NaCl, 1% NP40, 10% Glycerol) and lysates are cleared by centrifugation through a 96 well filter plate (0.65 μm). Axin2 protein is isolated from cell lysates by incubation with a monoclonal anti-Axin2 antibody (R&D Systems #MAB6078) that is bound to fluorescent carboxybeads. Then, bound Axin2 is specifically detected with a polyclonal anti-Axin2 antibody (Cell Signaling #2151) and an appropriate PE-fluorescent secondary antibody. The amount of isolated Axin2 protein is determined in a Luminex^200 machine (Luminex Corporation) according to the manufacturer's instruction by counting 100 events per well. Inhibition of Tankyrase by test compounds results in higher levels of Axin2 which directly correlates with an increase of detectable fluorescence. As controls cells are treated with solvent alone (neutral control) and with a Tankyrase reference inhibitor IWR-2 (3E-06 M) which refers as control for maximum increase of Axin2. For analysis, the obtained data are normalized against the untreated solvent control and fitted for determination of the EC50 values using the Assay Explorer software (Accelrys).
Consider `Cc1ncc2c(=O)[nH]c(-c3ccc(C(C)(C)C)cc3)cn12` [Compound A7, 6-(4-tert-butyl-phenyl)-3-methyl-7H-imidazo[1,5-a]pyrazin-8-one], for which the EC50 is below 3e-07 M.

As to `Cc1ncc2c(=O)[nH]c(-c3ccc(C(C)(C)O)cc3)cn12` [Compound A8, 6-[4-(1-hydroxy-1-methyl-ethyl)-phenyl]-3-methyl-7H-imidazo[1,5-a]pyrazin-one], the EC50 was 3e-07 to 3e-06 M.

The next test concerns the target T3, GST-tagged Tankyrase-2 (873-1166 aa) (Homo sapiens, UniProt Q9H2K2).
T3 construct: GST-tagged Tankyrase-2 (873-1166 aa)
In words: Tankyrase 2 autoparsylation assay (HTRF). To be noted: read-out: IC50 TNKS2 enzyme assay. The class given is biochemical. As to the method: as §1, §2, §3
Turning to `Cn1cc(-c2ccc(-c3cn4cncc4c(=O)[nH]3)cc2)cn1` [Compound A4, 6-[4-(1-methyl-1H-pyrazol-4-yl)-phenyl]-7H-imidazo[1,5-a]pyrazin-8-one], the IC50 lay within 300 to 3000 nM.

For the compound `O=c1[nH]c(-c2ccc(CO)cc2)cn2cncc12` [Compound A5, 6-(4-hydroxymethyl-phenyl)-7H-imidazo[1,5-a]pyrazin-8-one], the IC50 fell in the range of 300 to 3000 nM.

On to `CC(C)(O)c1ccc(-c2cn3cncc3c(=O)[nH]2)cc1` [Compound A6, 6-[4-(1-hydroxy-1-methyl-ethyl)-phenyl]-7H-imidazo[1,5-a]pyrazin-8-one], for which the IC50 was in the range of 300 to 3000 nM.

As to `Cc1ncc2c(=O)[nH]c(-c3ccc(C(C)(C)C)cc3)cn12` [Compound A7, 6-(4-tert-butyl-phenyl)-3-methyl-7H-imidazo[1,5-a]pyrazin-8-one], the IC50 lay within 300 to 3000 nM.

The target of the next test is T4, GST-tagged Tnks-1 (1023-1327 aa) (Homo sapiens, UniProt O95271).
T4 construct: GST-tagged Tnks-1 (1023-1327 aa, prepared in-house); made in house
T4 sequence (O95271 1023-1327): as the sequence (O95271 1023-1327) above
The test can be described thus: TNKS1 activity ELISA (autoparsylation assay). The class given is biochemical.
Conditions: not given
On the procedure:
as §4, §5, §6, §7
Regarding `Cn1cc(-c2ccc(-c3cn4cncc4c(=O)[nH]3)cc2)cn1` [Compound A4, 6-[4-(1-methyl-1H-pyrazol-4-yl)-phenyl]-7H-imidazo[1,5-a]pyrazin-8-one], the IC50 was below 300 nM.

For the compound `O=c1[nH]c(-c2ccc(CO)cc2)cn2cncc12` [Compound A5, 6-(4-hydroxymethyl-phenyl)-7H-imidazo[1,5-a]pyrazin-8-one], the IC50 is below 300 nM.

Take `CC(C)(O)c1ccc(-c2cn3cncc3c(=O)[nH]2)cc1` [Compound A6, 6-[4-(1-hydroxy-1-methyl-ethyl)-phenyl]-7H-imidazo[1,5-a]pyrazin-8-one]: the IC50 was below 300 nM.

`Cc1ncc2c(=O)[nH]c(-c3ccc(C(C)(C)C)cc3)cn12` [Compound A7, 6-(4-tert-butyl-phenyl)-3-methyl-7H-imidazo[1,5-a]pyrazin-8-one]: the IC50 is below 300 nM.

A further test deals with T5, His-tagged Parp-1 (Homo sapiens, UniProt P09874).
T5 construct: purchased Enzo Life Sciences GmbH, Lörrach, Germany
T5 sequence (P09874 whole entry): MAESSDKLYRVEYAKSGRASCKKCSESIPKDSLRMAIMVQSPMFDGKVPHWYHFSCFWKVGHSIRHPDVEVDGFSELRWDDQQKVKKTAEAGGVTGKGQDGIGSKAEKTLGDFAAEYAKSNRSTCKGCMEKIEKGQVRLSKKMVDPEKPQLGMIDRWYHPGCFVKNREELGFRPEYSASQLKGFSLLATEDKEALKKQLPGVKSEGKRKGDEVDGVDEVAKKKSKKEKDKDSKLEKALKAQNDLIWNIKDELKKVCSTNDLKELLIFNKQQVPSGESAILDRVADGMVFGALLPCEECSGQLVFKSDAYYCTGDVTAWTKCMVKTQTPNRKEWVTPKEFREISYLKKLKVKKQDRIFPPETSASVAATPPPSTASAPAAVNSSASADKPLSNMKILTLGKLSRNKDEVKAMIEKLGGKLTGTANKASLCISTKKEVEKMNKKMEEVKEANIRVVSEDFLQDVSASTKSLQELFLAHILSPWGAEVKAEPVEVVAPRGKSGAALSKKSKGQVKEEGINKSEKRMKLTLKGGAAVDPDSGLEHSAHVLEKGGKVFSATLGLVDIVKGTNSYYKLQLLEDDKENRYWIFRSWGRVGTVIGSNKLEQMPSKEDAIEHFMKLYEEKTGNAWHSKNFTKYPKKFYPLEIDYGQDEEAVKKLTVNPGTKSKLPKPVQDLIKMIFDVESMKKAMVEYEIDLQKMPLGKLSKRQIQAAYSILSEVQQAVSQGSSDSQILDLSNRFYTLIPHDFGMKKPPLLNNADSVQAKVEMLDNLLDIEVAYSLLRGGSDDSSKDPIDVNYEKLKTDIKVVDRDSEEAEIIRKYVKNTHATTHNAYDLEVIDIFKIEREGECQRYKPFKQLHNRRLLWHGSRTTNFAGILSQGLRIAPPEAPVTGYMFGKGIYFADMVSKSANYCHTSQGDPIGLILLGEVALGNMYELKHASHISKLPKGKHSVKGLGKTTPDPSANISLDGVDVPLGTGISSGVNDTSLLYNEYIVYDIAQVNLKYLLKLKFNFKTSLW
In words: PARP-1 autoparsylation assay (HTRF). Format: biochemical. To be noted: PARP-1 autoparsylation HTRF. The source says:
Description of the PARP1 Assay
Biochemical Activity Testing of PARP-1: Autoparsylation Assay
The autoparsylation assay is run in two steps: the enzymatic reaction in which His-tagged Parp-1 transfers biotinylated ADP-ribose/ADP-ribose to itself from biotinylated NAD/NAD as co-substrate and the detection reaction where a time resolved FRET between cryptate labelled anti-His antibody bound to the His tag of the enzyme and Xlent® labelled-streptavidin bound the biotin-parsylation residue is analysed. The autoparsylation activity is detectable directly via the increase in HTRF signal.
The autoparsylation assay is performed as 384-well HTRF® (Cisbio, Codolet, France) assay format in Greiner low volume nb 384-well microtiter plates. 35 nM His-tagged Parp-1 (human, recombinant, Enzo Life Sciences GmbH, Lörrach, Germany) and a mixture of 125 nM bio-NAD (Biolog, Life science Inst., Bremen, Germany) and 800 nM NAD as co-substrate are incubated in a total volume of 6 μl (100 mM Tris/HCl, 4 mM Mg-chloride, 0.01% IGEPAL® CA630, 1 mM DTT, 0.5% DMSO, pH 8, 13 ng/μl activated DNA (BPS Bioscience, San Diego, US)) in the absence or presence of the test compound (10 dilution concentrations) for 150 min at 23° C. The reaction is stopped by the addition of 4 μl of the Stop/detection solution (70 nM SA-Xlent® (Cisbio, Codolet, France), 2.5 nM Anti-His-K® (Eu-labelled anti-His, Cisbio, Codolet, France) in 50 mM HEPES, 400 mM KF, 0.1% BSA, 20 mM EDTA, pH 7.0). After 1 h incubation at room temperature the HTRF is measured with an Envision multimode reader (Perkin Elmer LAS Germany GmbH) at excitation wavelength 340 nm (laser mode) and emission wavelengths 615 nm and 665 nm. The ratio of the emission signals is determined. The full value used is the inhibitor-free reaction. The pharmacological zero value used is Olaparib (LClabs, Woburn, US) in a final concentration of 1 μM. The inhibitory values (IC50) are determined using either the program Symyx Assay Explorer® or Condosseo® from GeneData.
In the case of `CC(C)(O)c1ccc(-c2cn3cncc3c(=O)[nH]2)cc1` [Compound A6, 6-[4-(1-hydroxy-1-methyl-ethyl)-phenyl]-7H-imidazo[1,5-a]pyrazin-8-one], the IC50 lay in the range of 3000 to 50000 nM.

As usually defined, the IC50 is the point on the concentration scale where inhibition reaches its midpoint. In general, EC50 refers to the concentration that produces a half-maximal response.
